US5945453A, “Benzoylphenylurea insecticides to control cockroaches” (Dow AgroSciences LLC, priority 1997, dated 1999)

Experiments:
Assay type in all cases: in vivo
[1] = test system: German cockroach 2nd instars (Blattella germanica); test: Limited ingestion exposure (48 hr) to treated cornmeal; details: for LC50, low / LC50, high: 48 hr limited exposure; for LC50, low: 'low' column (also holds the value where only one is printed); for potency versus hexaflumuron: limited exposure; for LC50, high: 'high' column
From the text: (§1) German cockroach 2nd instars (Blattella germanica)
Limited ingestion exposure (48 hr) to treated cornmeal

[2] = test system: Cat Flea (Ctenocephalides felis); test: Continuous exposure of larvae to treated media, impact on subsequent adult emergence; details: for LC50 / LC90: continuous exposure of larvae, adult emergence
From the text: Cat Flea (Ctenocephalides felis)
Continuous exposure of larvae to treated media, impact on subsequent adult emergence

[3] = test system: German cockroach 2nd instars (Blattella germanica); test: Continuous, low-dose ingestion exposure (treated cornmeal)
From the text: as §1
Continuous, low-dose ingestion exposure (treated cornmeal)

[4] = test system: Subterranean Termite (Reticulitermes flavipes); test: Continuous exposure (56 days) to treated paper; details: for performance versus hexaflumuron: Eastern Subterranean termite
From the text: (§2) Subterranean Termite (Reticulitermes flavipes)
(§3) Continuous exposure (56 days) to treated paper

Daphnia = test: Activity against Daphnia, 48 hr exposure to treated water
From the text: 48 hr exposure to treated water

[5] = test system: Subterranean Termite (Reticulitermes virginicus); test: Continuous exposure (56 days) to treated paper; details: for LT50 (days) for 200 ppm trt / LC50 / speed of action versus hexaflumuron: continuous exposure
From the text: Subterranean Termite (Reticulitermes virginicus)
as §3

[6] = test system: Subterranean Termite (Reticulitermes flavipes); test: Limited exposure (7 days) with mortality determined at 14, 28, 42, and 56 days; details: for LT50 (days) for 10000 ppm treatment: limited exposure (7 days); for speed of activity, Compound 1 versus hexaflumuron: limited exposure
From the text: as §2
Limited exposure (7 days) with mortality determined at 14, 28, 42, and 56 days

[7] = test system: Red Imported Fire Ant (RIFA) (Solenopsis invicta); test: Laboratory ant bait study, 3-4 day exposure to bait, brood reduction; details: for Time to Achieve 50% Brood Reduction / Time to Achieve 90% Brood Reduction: RIFA, best results achieved with compound
Description: (§4) Laboratory ant bait studies were carried out with Red Imported Fire Ant (RIFA) (Solenopsis invicta) and Pharaoh Ant (Monomorium pharaonis). Chitin synthesis inhibitors, such as the compounds of the invention, control ants by killing the molting larvae and/or pupae and potentially preventing the hatching of eggs. Because adult workers are not affected, control is measured by effects on the brood.
(§5) The studies involved 3-4 day exposure to bait. These limited exposure studies more accurately represent real world bait availability than continuous exposure.

[8] = test system: Pharaoh Ant (Monomorium pharaonis); test: as above; details: 0.1%, best results achieved with compound
Description: as §4, §5

[9] = Southeastern subterranean termite

| Structure (SMILES) | LC50, low ([1]; 21 days) | LC50, low ([1]; 42 days) | potency versus hexaflumuron [1] | LC50 [2] [ppm] | LC90 [2] [ppm] | potency versus hexaflumuron [3] | LC50 ([3]; 21 days) [ppm] | LC50 ([3]; 42 days) [ppm] | performance versus hexaflumuron [4] | activity against Daphnia versus Compound 1 or hexaflumuron (Daphnia) | LT50 (days) for 200 ppm trt [5] [days] | LC50 ([5]; 21 days) [ppm] | LC50 ([5]; 35 days) [ppm] | speed of action versus hexaflumuron [5, 9] | LT50 (days) for 10000 ppm treatment [6] [days] | speed of activity, Compound 1 versus hexaflumuron [6] | LT50 (days) for 200 ppm trt [4] [days] | LC50 ([4]; 21 days) [ppm] | LC50 ([4]; 35 days) [ppm] | also measured |
| --- | --- | --- | --- | --- | --- | --- | --- | --- | --- | --- | --- | --- | --- | --- | --- | --- | --- | --- | --- | --- |
| CCN(C(=O)NC(=O)c1c(F)cccc1F)c1cc(Cl)c(OC(F)(F)C(F)C(F)(F)F)c(Cl)c1 (stereo not drawn) [Compound 3, N-[3,5-Dichloro-4-(1,1,2,3,3,3-hexafluoro-propoxy)phenyl]-N'-(2,6-difluorobenzoyl)-N-ethylurea] | 52.2 ppm | 30.9 ppm | far more potent than hexaflumuron | 78.0 | 460.7 | far superior to hexaflumuron | 1.3 | 0.78 | no performance advantage | far less active against Daphnia than were Compound 1 or hexaflumuron | 9.7 | 62.4 | < 0.78 | faster acting that hexaflumuron | – | – | – | – | – | potency versus hexaflumuron ([5]; 21 days of exposure, Southeastern subterranean termite): more potent at 21 days of exposure |
| O=C(NC(=O)c1c(F)cccc1F)Nc1cc(Cl)c(OC(F)(F)C(F)F)c(Cl)c1 [hexaflumuron, reference compound] | > 10,000 ppm | > 10,000 ppm | – | 65.7 | 333.5 | – | > 200 | > 200 | – | – | 16.3 | 28.8 | < 0.78 | – | 32.9 | comparable in speed of activity | 25.7 | > 200 | < 0.78 | Time to Achieve 50% Brood Reduction ([7]; 0.25%): 4 wks; Time to Achieve 90% Brood Reduction ([7]; 0.25%): 10 wks |
| CCN(C(=O)Nc1cc(Cl)c(OC(F)(F)C(F)C(F)(F)F)c(Cl)c1)C(=O)c1c(F)cccc1F (stereo not drawn) [Compound 2, N-[3,5-Dichloro-4-(1,1,2,3,3,3-hexafluoropropoxy)phenyl]-N'-(2,6-difluorobenzoyl)-N'-ethyl urea] | 192.0 ppm | – | far more potent than hexaflumuron | 329.4 | > 1000 | far superior to hexaflumuron | 9.3 | 5.4 | no performance advantage | far less active against Daphnia than were Compound 1 or hexaflumuron | – | – | – | – | – | – | 34.6 | > 200 | 22.5 | – |
| O=C(NC(=O)c1c(F)cccc1F)Nc1cc(Cl)c(OC(F)(F)C(F)C(F)(F)F)c(Cl)c1 (stereo not drawn) [Compound 1, N-[3,5-Dichloro-4-(1,1,2,3,3,3-hexafluoropropoxy)phenyl]-N'-(2,6-difluorobenzoyl) urea] | < 1.0 ppm | < 1.0 ppm | far more potent than hexaflumuron | 8.6 | 12.8 | far superior to hexaflumuron | 14.5 | < 0.23 | no performance advantage | – | 10.2 | 3.5 | < 0.78 | faster acting that hexaflumuron | 34.5 | comparable in speed of activity | 32.9 | > 200 | < 0.78 | LC50, high ([1]; 21 days): 52.7 ppm; LC50, high ([1]; 42 days): 30.1 ppm; activity versus hexaflumuron ([2]; fleas): far more active against fleas than was hexaflumuron; Time to Achieve 50% Brood Reduction [8]: 2 wks; Time to Achieve 90% Brood Reduction [8]: 4 wks; Time to Achieve 50% Brood Reduction ([7]; 0.1%): 2-3 wks; Time to Achieve 90% Brood Reduction ([7]; 0.1%): 4 wks; potency versus hexaflumuron ([7]; short exposure study with RIFA): significantly more potent than hexaflumuron |
